From patent US10064889B2, “Mercapto-modified biocompatible macromolecule derivatives with low degree of mercapto-modification and the cross-linked materials and uses thereof” (Bioregen Biomedical (Changzhou) Co., Ltd., priority 2010, dated 2018)

Experiment: Drug release from drug-containing disulfide-bond cross-linked hyaluronic acid hydrogel into phosphate buffer solution
Format: physicochemical
Conditions: 37° C., 100 rpm; for Cumulative release percentage of the drug: hydrogel 10 mg/ml hyaluronic acid, degree of mercapto-modification 3.97%
Protocol: In the preparation process of the disulfide-bond cross-linked hyaluronic acid hydrogel of Example 6 (having a concentration of hyaluronic acid of 10 mg/ml and a degree of mercapto-modification of 3.97%), 0.1-10 mg cortical hormones (e.g. Beclomethasone, Beclomethasone dipropionate, Budesonide, Dexamethasone, Prednisolone, and Prednisone) were added respectively to make the cortical hormones uniformly dispersed in the prepared cross-linked hydrogel.
10 ml phosphate buffer solution was added to 0.2 ml of the above drug-containing cross-linked hydrogel placed into a 15 ml plastic centrifugal tube. Then centrifugal tube was placed in a shaker (37° C., 100 rpm), and the ultraviolet absorption of the drugs in the supernatant was measured at regular intervals. The measurement wavelengths were as follows: Beclomethasone 246 nm, Beclomethasone dipropionate 240 nm, Budesonide 248 nm, Dexamethasone 242 nm, Prednisolone 248 nm, and Prednisone 244 nm.

Structure (SMILES) | Release behaviour from the hydrogel (in words) | Cumulative release percentage of the drug (7 days) [%] | Cumulative release percentage of the drug (14 days) [%] | Cumulative release percentage of the drug (21 days) [%]
CCC(=O)OCC(=O)[C@@]1(OC(=O)CC)[C@@H](C)C[C@H]2[C@@H]3CCC4=CC(=O)C=C[C@]4(C)[C@@]3(Cl)[C@@H](O)C[C@@]21C [Beclomethasone dipropionate] | release was rarely detected | <1 | <1 | <1
C[C@H]1C[C@H]2[C@@H]3CCC4=CC(=O)C=C[C@]4(C)[C@@]3(Cl)[C@@H](O)C[C@]2(C)[C@@]1(O)C(=O)CO [Beclomethasone] | – | 68 | 87 | 94
C[C@]12C=CC(=O)C=C1CC[C@@H]1[C@@H]2[C@@H](O)C[C@@]2(C)[C@H]1CC[C@]2(O)C(=O)CO [Prednisolone] | released basically completely in 7 days | 95 | 100 | 100
C[C@]12C=CC(=O)C=C1CC[C@@H]1[C@@H]2C(=O)C[C@@]2(C)[C@H]1CC[C@]2(O)C(=O)CO [Prednisone] | – | 86 | 99 | 100
